Earlier results, collected in patent publication US9175008B1, “Prodrugs of anti-platelet agents” (CELLIX BIO PRIVATE LIMITED, priority 2014, dated 2015).

Tested on: recurrent atherothrombotic events
Conditions: recurrent atherothrombotic events across a wide range of high-risk patients

With `CC(=O)Oc1ccccc1C(=O)O` [aspirin] as the molecule, how does the relative risk reduction read?
Its relative risk reduction is “approximately 25%”.
